Our source for the inhibition in vivo and inhibition values is ChEMBL document CHEMBL3046923, “Heteroaromatic analogues of 1,5-diarylpyrazole class as anti-inflammatory agents” (2012).

Activity calls are given as the source filed them. The rule behind the calls is not given here.

What all share (assay type): functional
Experiment [1] relates to Rattus norvegicus. The experiment is described as follows: Anti-inflammatory activity in Rattus norvegicus Wistar albino (rat) assessed as inhibition of carrageenan-induced paw edema at 50 mg/kg, po administered for 30 min prior to carrageenan challenge measured at 4 hr relative to control. On the technique in general: In the carrageenan paw model, swelling and tenderness develop within hours.

Experiment [2] relates to Rattus norvegicus. The experiment is described as follows: Anti-inflammatory activity in Rattus norvegicus Wistar albino (rat) assessed as inhibition of carrageenan-induced paw edema at 50 mg/kg, po administered for 30 min prior to carrageenan challenge measured at 2 hr relative to control.
Experiment [3] has as its system Rattus norvegicus. The experiment is described as follows: Anti-inflammatory activity in Rattus norvegicus Wistar albino (rat) assessed as inhibition of carrageenan-induced paw edema at 50 mg/kg, po administered for 30 min prior to carrageenan challenge measured at 3 hr relative to control.
Experiment [4] has as its system Rattus norvegicus. The experiment is described as follows: Anti-inflammatory activity in Rattus norvegicus Wistar albino (rat) assessed as inhibition of carrageenan-induced paw edema at 50 mg/kg, po administered for 30 min prior to carrageenan challenge measured at 1 hr relative to control.
For experiment [5], the system named is Rattus norvegicus. The experiment is described as follows: Anti-inflammatory activity in Rattus norvegicus Wistar albino (rat) assessed as inhibition of carrageenan-induced paw edema at 10 mg/kg, ip administered for 30 min prior to carrageenan challenge measured at 4 hr relative to control. Particulars: route intraperitoneal.
Experiment [6] concerns Rattus norvegicus. The experiment in a line: Anti-inflammatory activity in Rattus norvegicus Wistar albino (rat) assessed as inhibition of carrageenan-induced paw edema at 10 mg/kg, ip administered for 30 min prior to carrageenan challenge measured at 2 hr relative to control. Particulars: route intraperitoneal.
Experiment [7] deals with Rattus norvegicus. The experiment in a line: Anti-inflammatory activity in Rattus norvegicus Wistar albino (rat) assessed as inhibition of carrageenan-induced paw edema at 10 mg/kg, ip administered for 30 min prior to carrageenan challenge measured at 3 hr relative to control. The conditions noted are these: route intraperitoneal.
Experiment [8] deals with Rattus norvegicus. The experiment is described as follows: Anti-inflammatory activity in Rattus norvegicus Wistar albino (rat) assessed as inhibition of carrageenan-induced paw edema at 10 mg/kg, ip administered for 30 min prior to carrageenan challenge measured at 1 hr relative to control. Particulars: route intraperitoneal.

Turning to `COc1ccc(-c2cc(C(F)(F)F)nn2-c2nc3ccc(S(N)(=O)=O)cc3s2)cc1`, the inhibition in vivo at 50 mg/kg in experiment [1] turned out to be 53%; in experiment [2], 31%; in experiment [3], 60%; in experiment [4], 42%.

Consider `Cc1ccc(-c2cc(C(F)(F)F)nn2-c2nc3ccc(S(N)(=O)=O)cc3s2)cc1`, for which the inhibition in vivo at 50 mg/kg in experiment [1] came out at 52%; in experiment [2] it was 38%; in experiment [3] it was 56%; in experiment [4], 35%.

As for `NS(=O)(=O)c1ccc2nc(-n3nc(C(F)(F)F)cc3-c3ccc4ccccc4c3)sc2c1`, the inhibition in vivo at 50 mg/kg in experiment [1] came out at 20%; in experiment [2] it was 27%; in experiment [3], 53%; in experiment [4] it was 30%.

`Cc1ccc(-c2cc(C(F)(F)F)n(-c3nc4ccc(S(N)(=O)=O)cc4s3)n2)cc1`: the inhibition result in experiment [1], in experiment [2], in experiment [3] and in experiment [4] was “inactive” each time.

Take `NS(=O)(=O)c1ccc2nc(-n3nc(C(F)(F)F)cc3-c3cccs3)sc2c1`: the inhibition in vivo at 50 mg/kg in experiment [1] amounted to 15%; in experiment [2], 26%; in experiment [3], 49%; in experiment [4], 5%.

For the compound `NS(=O)(=O)c1ccc2nc(-n3nc(C(F)(F)F)cc3-c3ccc(Cl)cc3)sc2c1`, the inhibition in vivo at 50 mg/kg in experiment [1] turned out to be 42%; in experiment [2], 42%; in experiment [3], 61%; in experiment [4] it was 44%.

For the compound `COc1ccc2c(c1)c(CC(=O)O)c(C)n2C(=O)c1ccc(Cl)cc1` [INDOMETHACIN], the inhibition in vivo at 10 mg/kg in experiment [5] came out at 75%; in experiment [6], 78%; in experiment [7], 78%; in experiment [8], 70%.

In the case of `NS(=O)(=O)c1ccc2nc(-n3nc(C(F)(F)F)cc3-c3ccccc3)sc2c1`, the inhibition in vivo at 50 mg/kg in experiment [1] worked out at 17%; in experiment [2] it was 48%; in experiment [3], 54%; in experiment [4] it was 32%.

For the compound `NS(=O)(=O)c1ccc2nc(-n3nc(C(F)(F)F)cc3-c3ccco3)sc2c1`, the inhibition in vivo at 50 mg/kg in experiment [1] stood at 54%; in experiment [2], 46%; in experiment [3], 61%; in experiment [4], 27%.

Consider `NS(=O)(=O)c1ccc2nc(-n3nc(C(F)(F)F)cc3-c3ccc(F)cc3)sc2c1`, for which the inhibition in vivo at 50 mg/kg is 50% in experiment [1], 48% in experiment [2], 64% in experiment [3] and 54% in experiment [4].

For the compound `NS(=O)(=O)c1ccc2nc(-n3nc(C(F)(F)F)cc3-c3ccc(Br)cc3)sc2c1`, the inhibition in vivo at 50 mg/kg in experiment [1] amounted to 43%; in experiment [2] it was 56%; in experiment [3], 60%; in experiment [4] it was 45%.

What is called inhibition in vivo is the change of the read-out against control, counted positive when it falls.
